Reference: doi:10.1101/2023.11.24.568596v1 (biorxiv, 2023)
Values belong to the molecule of their own block, whether it stands above or below them.

Legend:
Conditions in all cases: binder
[1] = biological target: T1, Haspin (Homo sapiens, UniProt Q8TF76)
T1 sequence (Q8TF76 1-798): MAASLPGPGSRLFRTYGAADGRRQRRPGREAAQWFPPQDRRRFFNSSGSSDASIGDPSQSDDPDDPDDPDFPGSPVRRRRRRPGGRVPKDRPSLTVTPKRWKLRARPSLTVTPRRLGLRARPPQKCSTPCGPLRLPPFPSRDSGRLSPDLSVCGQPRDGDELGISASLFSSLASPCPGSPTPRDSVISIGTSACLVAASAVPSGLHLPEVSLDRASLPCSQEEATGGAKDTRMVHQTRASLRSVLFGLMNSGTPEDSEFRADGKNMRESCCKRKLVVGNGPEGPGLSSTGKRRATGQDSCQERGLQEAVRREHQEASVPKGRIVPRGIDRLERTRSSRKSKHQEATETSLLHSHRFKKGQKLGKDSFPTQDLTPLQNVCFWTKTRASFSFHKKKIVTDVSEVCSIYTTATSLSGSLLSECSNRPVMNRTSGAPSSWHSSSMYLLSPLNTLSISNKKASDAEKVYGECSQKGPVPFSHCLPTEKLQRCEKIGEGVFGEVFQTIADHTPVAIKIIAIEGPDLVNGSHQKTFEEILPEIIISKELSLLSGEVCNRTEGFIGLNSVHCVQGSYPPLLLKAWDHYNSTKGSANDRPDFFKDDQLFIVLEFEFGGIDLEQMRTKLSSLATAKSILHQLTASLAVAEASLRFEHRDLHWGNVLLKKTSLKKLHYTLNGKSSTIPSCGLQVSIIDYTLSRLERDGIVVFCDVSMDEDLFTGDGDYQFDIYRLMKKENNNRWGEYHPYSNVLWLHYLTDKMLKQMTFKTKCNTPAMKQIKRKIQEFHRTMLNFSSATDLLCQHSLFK

[2] = biological target: MSK1b (Homo sapiens, UniProt O75582)
Chain of MSK1b (O75582 whole entry): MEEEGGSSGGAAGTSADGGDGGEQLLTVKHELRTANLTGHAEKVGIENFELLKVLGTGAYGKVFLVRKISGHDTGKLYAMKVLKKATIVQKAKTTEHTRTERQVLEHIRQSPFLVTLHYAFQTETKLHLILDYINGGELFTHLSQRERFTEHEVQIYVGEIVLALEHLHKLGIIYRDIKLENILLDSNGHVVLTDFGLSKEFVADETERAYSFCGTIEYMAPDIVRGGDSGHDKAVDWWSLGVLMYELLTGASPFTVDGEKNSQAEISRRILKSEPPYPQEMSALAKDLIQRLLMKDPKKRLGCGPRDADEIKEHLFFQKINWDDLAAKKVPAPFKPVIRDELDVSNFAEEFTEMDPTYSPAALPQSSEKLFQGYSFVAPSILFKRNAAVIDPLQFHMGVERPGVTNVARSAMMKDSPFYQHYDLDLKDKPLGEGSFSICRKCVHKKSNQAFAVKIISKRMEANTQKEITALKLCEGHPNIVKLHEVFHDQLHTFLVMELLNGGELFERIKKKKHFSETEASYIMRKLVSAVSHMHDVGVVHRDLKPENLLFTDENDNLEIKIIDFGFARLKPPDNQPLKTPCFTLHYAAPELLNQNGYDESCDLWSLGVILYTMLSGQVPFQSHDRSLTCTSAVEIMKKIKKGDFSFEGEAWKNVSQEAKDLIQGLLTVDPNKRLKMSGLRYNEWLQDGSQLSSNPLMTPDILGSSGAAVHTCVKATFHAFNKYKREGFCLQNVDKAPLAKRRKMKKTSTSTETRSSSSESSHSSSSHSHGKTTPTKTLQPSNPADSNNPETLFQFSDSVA

[3] = biological target: PCTAIRE1 (Homo sapiens, UniProt Q00536)
Chain of PCTAIRE1 (Q00536 whole entry): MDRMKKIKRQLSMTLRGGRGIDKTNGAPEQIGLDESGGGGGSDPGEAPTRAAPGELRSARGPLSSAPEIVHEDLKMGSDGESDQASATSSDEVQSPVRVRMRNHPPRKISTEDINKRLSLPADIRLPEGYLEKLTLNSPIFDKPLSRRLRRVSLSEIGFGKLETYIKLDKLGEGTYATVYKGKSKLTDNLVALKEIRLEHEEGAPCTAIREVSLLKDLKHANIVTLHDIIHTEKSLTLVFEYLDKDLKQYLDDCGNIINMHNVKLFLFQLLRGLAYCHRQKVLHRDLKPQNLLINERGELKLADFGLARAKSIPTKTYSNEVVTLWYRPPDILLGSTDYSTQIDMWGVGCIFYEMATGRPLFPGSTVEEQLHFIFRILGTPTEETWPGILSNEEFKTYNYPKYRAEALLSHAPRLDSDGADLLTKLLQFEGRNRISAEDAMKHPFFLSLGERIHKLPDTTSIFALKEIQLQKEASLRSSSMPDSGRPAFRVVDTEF

[4] = biological target: MST4 (Homo sapiens, UniProt Q9P289)
Chain of MST4 (Q9P289 whole entry): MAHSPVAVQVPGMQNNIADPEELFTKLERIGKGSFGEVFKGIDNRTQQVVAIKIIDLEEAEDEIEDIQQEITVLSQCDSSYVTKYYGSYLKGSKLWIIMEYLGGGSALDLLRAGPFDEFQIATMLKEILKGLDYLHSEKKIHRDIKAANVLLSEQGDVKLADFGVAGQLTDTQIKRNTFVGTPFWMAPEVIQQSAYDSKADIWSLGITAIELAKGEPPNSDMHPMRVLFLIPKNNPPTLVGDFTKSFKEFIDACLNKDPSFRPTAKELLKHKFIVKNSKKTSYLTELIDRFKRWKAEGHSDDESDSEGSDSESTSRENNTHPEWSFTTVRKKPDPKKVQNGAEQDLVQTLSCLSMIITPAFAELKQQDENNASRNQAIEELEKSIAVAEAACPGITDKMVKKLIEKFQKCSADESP

[5] = biological target: CaMK2b (Homo sapiens, UniProt Q13554)
Chain of CaMK2b (Q13554 whole entry): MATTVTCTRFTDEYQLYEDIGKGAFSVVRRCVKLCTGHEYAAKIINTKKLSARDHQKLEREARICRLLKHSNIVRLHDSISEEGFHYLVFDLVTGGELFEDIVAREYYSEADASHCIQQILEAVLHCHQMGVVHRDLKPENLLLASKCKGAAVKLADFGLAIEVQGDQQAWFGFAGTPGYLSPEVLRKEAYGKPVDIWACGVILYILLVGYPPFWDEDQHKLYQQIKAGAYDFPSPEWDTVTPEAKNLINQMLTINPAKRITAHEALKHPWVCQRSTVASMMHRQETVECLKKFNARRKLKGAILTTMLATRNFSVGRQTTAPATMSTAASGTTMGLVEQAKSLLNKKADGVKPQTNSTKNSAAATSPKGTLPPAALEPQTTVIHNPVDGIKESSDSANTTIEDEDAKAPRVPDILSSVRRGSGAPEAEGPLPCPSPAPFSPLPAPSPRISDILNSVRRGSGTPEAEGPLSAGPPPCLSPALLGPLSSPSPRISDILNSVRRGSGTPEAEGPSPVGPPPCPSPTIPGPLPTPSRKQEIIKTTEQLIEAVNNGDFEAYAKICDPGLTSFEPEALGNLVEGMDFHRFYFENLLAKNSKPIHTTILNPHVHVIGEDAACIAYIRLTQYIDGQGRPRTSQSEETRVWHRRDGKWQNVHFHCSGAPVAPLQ

[6] = biological target: T2, MAP2K6 (Homo sapiens, UniProt P52564)
T2 sequence (P52564 1-334): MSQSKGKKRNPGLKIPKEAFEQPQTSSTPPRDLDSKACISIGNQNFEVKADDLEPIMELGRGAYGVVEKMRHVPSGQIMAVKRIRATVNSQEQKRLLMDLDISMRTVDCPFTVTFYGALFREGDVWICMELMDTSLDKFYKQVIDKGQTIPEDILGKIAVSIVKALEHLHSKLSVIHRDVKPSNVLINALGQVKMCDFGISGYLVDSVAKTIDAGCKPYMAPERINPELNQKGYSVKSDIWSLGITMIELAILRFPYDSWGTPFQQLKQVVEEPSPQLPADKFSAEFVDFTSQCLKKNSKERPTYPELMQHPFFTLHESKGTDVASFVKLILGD

[7] = biological target: T3, CASK (Homo sapiens, UniProt O14936)
T3 sequence (O14936 1-926): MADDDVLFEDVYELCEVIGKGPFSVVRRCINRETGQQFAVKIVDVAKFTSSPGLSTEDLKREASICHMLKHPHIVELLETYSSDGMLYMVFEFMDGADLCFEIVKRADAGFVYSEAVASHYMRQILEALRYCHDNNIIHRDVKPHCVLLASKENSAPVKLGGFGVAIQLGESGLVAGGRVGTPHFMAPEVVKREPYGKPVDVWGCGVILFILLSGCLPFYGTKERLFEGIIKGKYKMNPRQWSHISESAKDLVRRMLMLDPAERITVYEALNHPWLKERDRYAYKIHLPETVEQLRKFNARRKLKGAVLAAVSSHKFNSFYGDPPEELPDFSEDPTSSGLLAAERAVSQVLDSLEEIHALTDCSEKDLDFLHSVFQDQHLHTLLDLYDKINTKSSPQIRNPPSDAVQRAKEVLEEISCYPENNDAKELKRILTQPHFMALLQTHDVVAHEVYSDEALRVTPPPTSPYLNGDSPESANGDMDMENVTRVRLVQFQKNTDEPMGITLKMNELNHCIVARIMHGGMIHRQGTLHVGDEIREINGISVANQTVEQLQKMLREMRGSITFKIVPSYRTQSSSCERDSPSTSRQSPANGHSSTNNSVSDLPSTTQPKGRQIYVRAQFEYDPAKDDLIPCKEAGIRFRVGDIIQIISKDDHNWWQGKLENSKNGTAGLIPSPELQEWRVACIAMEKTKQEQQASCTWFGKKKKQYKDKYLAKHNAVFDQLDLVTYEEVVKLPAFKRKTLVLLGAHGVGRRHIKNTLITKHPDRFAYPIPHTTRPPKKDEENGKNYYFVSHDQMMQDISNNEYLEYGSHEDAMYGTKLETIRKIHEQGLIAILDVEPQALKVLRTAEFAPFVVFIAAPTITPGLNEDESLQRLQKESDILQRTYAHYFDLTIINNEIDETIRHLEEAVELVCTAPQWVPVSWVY

[8] = biological target: T4, NEK2 (Homo sapiens, UniProt P51955)
T4 sequence (P51955 1-445): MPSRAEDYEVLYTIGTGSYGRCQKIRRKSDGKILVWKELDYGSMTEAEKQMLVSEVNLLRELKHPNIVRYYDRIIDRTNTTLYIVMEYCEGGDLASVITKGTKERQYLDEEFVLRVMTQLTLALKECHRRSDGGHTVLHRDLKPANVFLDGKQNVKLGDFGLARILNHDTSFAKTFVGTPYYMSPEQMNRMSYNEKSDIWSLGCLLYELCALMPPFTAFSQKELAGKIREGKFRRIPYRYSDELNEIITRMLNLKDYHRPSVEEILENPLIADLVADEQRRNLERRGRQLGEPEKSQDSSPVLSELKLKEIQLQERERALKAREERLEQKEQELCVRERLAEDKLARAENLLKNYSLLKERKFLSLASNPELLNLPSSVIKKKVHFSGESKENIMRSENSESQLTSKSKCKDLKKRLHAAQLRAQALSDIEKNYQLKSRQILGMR

Compound: Cc1cccc(-c2ccc(-c3cc4cnc(Nc5cc(C(F)(F)F)ccc5C)nc4n(CCCCN)c3=O)c(Cl)c2)n1 [compound 28, 8-(4-Aminobutyl)-6-(2-chloro-4-(6-methylpyridin-2-yl)phenyl)-2-((2-methyl-5-(trifluoromethyl)phenyl)amino)pyrido[2,3-d]pyrimidin-7(8H)-one]
- ΔTm 28 [1]: -1.3 °C
- ΔTm 28 [2]: 1.4 °C
- ΔTm 28 [3]: 1.1 °C
- ΔTm 28 [4]: 8.8 °C
- ΔTm 28 [5]: 0.7 °C
- ΔTm 28 [6]: 7.5 °C
- ΔTm 28 [7]: 0.0 °C
- ΔTm 28 [8]: 7.8 °C

Compound: Cc1cccc(-c2ccc(-c3cc4cnc(NCCCN5CCCC5=O)nc4n(CCCCN)c3=O)c(Cl)c2)n1 [compound 27, MR30]
- ΔTm MR30 (27) [1]: -0.7 °C
- ΔTm MR30 (27) [2]: -1.4 °C
- ΔTm MR30 (27) [3]: 2.9 °C
- ΔTm MR30 (27) [4]: 7.9 °C
- ΔTm MR30 (27) [5]: -1.1 °C
- ΔTm MR30 (27) [6]: 4.1 °C
- ΔTm MR30 (27) [7]: -0.3 °C
- ΔTm MR30 (27) [8]: 6.2 °C

Compound: Cc1cccc(-c2ccc(-c3cc4cnc(NCCCN5CCNCC5)nc4n(CCCCN)c3=O)c(Cl)c2)n1 [compound 29, 8-(4-Aminobutyl)-6-(2-chloro-4-(6-methylpyridin-2-yl)phenyl)-2-((3-(piperazin-1-yl)propyl)amino)pyrido[2,3-d]pyrimidin-7(8H)-one]
- ΔTm 29 [1]: -1.2 °C
- ΔTm 29 [2]: 0.2 °C
- ΔTm 29 [3]: 2.5 °C
- ΔTm 29 [4]: 10.2 °C
- ΔTm 29 [5]: -0.5 °C
- ΔTm 29 [6]: 1.9 °C
- ΔTm 29 [7]: -0.5 °C
- ΔTm 29 [8]: 5.1 °C

Next, values leading:

- ΔTm 30 [1]: 0.4 °C
- ΔTm 30 [2]: 3.6 °C
- ΔTm 30 [3]: 5.0 °C
- ΔTm 30 [4]: 15.3 °C
- ΔTm 30 [5]: 0.3 °C
- ΔTm 30 [6]: 9.4 °C
- ΔTm 30 [7]: -0.5 °C
- ΔTm 30 [8]: 11.6 °C
Compound: Cc1cccc(-c2ccc(-c3cc4cnc(Nc5ccc(CCCO)cc5)nc4n(CCCCN)c3=O)c(Cl)c2)n1 [compound 30, 8-(4-Aminobutyl)-6-(2-chloro-4-(6-methylpyridin-2-yl)phenyl)-2-((4-(3-hydroxypropyl)phenyl)amino)pyrido[2,3-d]pyrimidin-7(8H)-one]

- ΔTm 31 [1]: -0.4 °C
- ΔTm 31 [2]: 4.3 °C
- ΔTm 31 [3]: 5.0 °C
- ΔTm 31 [4]: 14.7 °C
- ΔTm 31 [5]: -0.4 °C
- ΔTm 31 [6]: 9.4 °C
- ΔTm 31 [7]: -0.2 °C
- ΔTm 31 [8]: 10.8 °C
Compound: Cc1cccc(-c2ccc(-c3cc4cnc(Nc5ccc(O)cc5)nc4n(CCCCN)c3=O)c(Cl)c2)n1 [compound 31, 8-(4-Aminobutyl)-6-(2-chloro-4-(6-methylpyridin-2-yl)phenyl)-2-((4-hydroxyphenyl)amino) pyrido[2,3-d]pyrimidin-7(8H)-one]

- ΔTm 32 [1]: -1.5 °C
- ΔTm 32 [2]: 4.6 °C
- ΔTm 32 [3]: 4.8 °C
- ΔTm 32 [4]: 15.5 °C
- ΔTm 32 [5]: 0.3 °C
- ΔTm 32 [6]: 8.9 °C
- ΔTm 32 [7]: 0.0 °C
- ΔTm 32 [8]: 10.1 °C
Compound: Cc1cccc(-c2ccc(-c3cc4cnc(Nc5ccc(C)c(O)c5)nc4n(CCCCN)c3=O)c(Cl)c2)n1 [compound 32, 8-(4-Aminobutyl)-6-(2-chloro-4-(6-methylpyridin-2-yl)phenyl)-2-((3-hydroxy-4-methylphenyl)amino)pyrido[2,3-d]pyrimidin-7(8H)-one]
